Tested on: E. coli
Conditions: samples loaded by microfluidic manifold and manually (non-manifold control); antibiotic bead minus control bead Ct; FIG. 7
Experimental: The tetracycline-lyophilized reagent bead 68 was prepared such that each tetracycline-lyophilized reagent bead 68 when dissolved in 10 microliters of water yields a solution containing 0.1, 0.5, 2, and 10, micrograms of tetracycline/mL of water. To complete the trials, the embedded amplification bead 20 in the solid wax 28 was placed at the bottom of each of the amplification reaction vessels 24, and the antibiotic bead 22 was placed on top of the solid wax 28. […] Bacterial growth in the presence of the varying tetracycline concentrations mentioned above was conducted for a period of about three hours at an incubation temperature of 37° C. The temperature was then raised to above the melting point of the solid wax 28, and amplification was performed to assess the inhibitory effects of tetracycline on bacterial growth. The threshold value (Ct) of the amplification reactions were measured. […] The data was normalized by subtracting the mean Ct value for no-drug positive control from individual Ct values across the drug-containing incubations. […]
As shown in the graphical representation of lyophilized drug reagent bead testing 60, the tetracycline concentration 62 for both liquid tetracycline 66, the control group reagent, and tetracycline-lyophilized reagent beads 68 were measured in micrograms per milliliter (μg/mL), relative to the delta Ct values 64 produced by the concentration. […]

How did the “growth inhibition (delta Ct values versus tetracycline concentration)” value turn out when `CN(C)[C@@H]1C(O)=C(C(N)=O)C(=O)[C@@]2(O)C(O)=C3C(=O)c4c(O)cccc4[C@@](C)(O)[C@H]3C[C@@H]12.Cl` [tetracycline, Tetracycline hydrochloride] was run?
Its value is “demonstrated growth inhibition at the same concentrations”.

Source: patent US20260103740A1, “METHOD AND APPARATUS FOR USING L[…] BEADS FOR ANTIMICROBIAL SUSCEPTIBILITY TESTING” (General Electric Company, priority 2022, published 2026)
